Values after ≈ are worked out from the molar mass of the structure shown. Active and inactive are the calls of the source. The rule behind the calls is not given here.
How the values were obtained:
Inquilinus limosus = test: Antibacterial activity against colistin-resistant Inquilinus limosus after 24 hrs by microbroth dilution method; type: functional
Staphylococcus aureus [1] = test: Antibacterial activity against Staphylococcus aureus after 24 hrs by microbroth dilution method; type: functional
Staphylococcus aureus [2] = test: Antibacterial activity against oxacillin-sensitive Staphylococcus aureus after 24 hrs by microbroth dilution method; type: functional
Staphylococcus aureus [3] = test: Antibacterial activity against oxacillin-resistant Staphylococcus aureus after 24 hrs by microbroth dilution method; type: functional
Burkholderia cepacia = test: Antibacterial activity against Colistin resistant Burkholderia cepacia after 24 hrs by microbroth dilution method; type: functional
Escherichia coli [4] = test: Antibacterial activity against Escherichia coli after 24 hrs by microbroth dilution method; type: functional
Pseudomonas aeruginosa [5] = test: Antibacterial activity against colistin-sensitive Pseudomonas aeruginosa after 24 hrs by microbroth dilution method; type: functional
Pseudomonas aeruginosa [6] = test: Antibacterial activity against Pseudomonas aeruginosa after 24 hrs by microbroth dilution method; type: functional
Escherichia coli [7] = test: Antibacterial activity against Escherichia coli assessed as induction of ATP efflux at 4 times MIC after 5 mins by luminometry analysis; type: functional
Staphylococcus aureus [8] = test: Antibacterial activity against Staphylococcus aureus ATCC 25923 after 24 hrs by microbroth dilution method in presence of Mg2+; type: functional
Staphylococcus aureus [9] = test: Antibacterial activity against Staphylococcus aureus ATCC 25923 after 24 hrs by microbroth dilution method in absence of Mg2+; type: functional
Escherichia coli [10] = test: Antibacterial activity against Escherichia coli ATCC 25922 after 24 hrs by microbroth dilution method in absence of Mg2+; type: functional
Escherichia coli [11] = test: Ratio of MIC for Escherichia coli ATCC 25922 in presence of Mg2+ to MIC for Escherichia coli ATCC 25922 in absence of Mg2+; type: functional
Staphylococcus aureus [12] = test: Antibacterial activity against Staphylococcus aureus assessed as induction of ATP efflux at 4 times MIC after 5 mins by luminometry; type: functional
Escherichia coli [13] = test: Antibacterial activity against Escherichia coli ATCC 25922 after 24 hrs by microbroth dilution method in presence of Mg2+; type: functional
Staphylococcus aureus [14] = test: Bactericidal activity against Staphylococcus aureus DSM 799 assessed as log decrease in bacterial count at MIC after 2 hrs by time-kill assay; type: functional
Escherichia coli [15] = test: Antibacterial activity against Escherichia coli assessed as induction of bacterial membrane depolarization at MIC measured up to 21 mins by fluorescence assay relative to squalamine; type: functional
Staphylococcus aureus [16] = test: Antibacterial activity against Staphylococcus aureus assessed as induction of bacterial membrane depolarization at MIC measured up to 21 mins by fluorescence assay relative to squalamine; type: functional
Staphylococcus aureus [17] = test: Bactericidal activity against Staphylococcus aureus DSM 799 assessed as log decrease in bacterial count at MIC after 1 hr by time-kill assay; type: functional
Pseudomonas aeruginosa [18] = test: Bactericidal activity against Pseudomonas aeruginosa DSM 939 assessed as complete killing at MIC after 2 hrs by time-kill assay; type: functional, organism-based
Escherichia coli [19] = test: Antibacterial activity against Escherichia coli assessed as induction of bacterial membrane depolarization at MIC measured up to 21 mins by fluorescence assay; type: functional, organism-based
Staphylococcus aureus [20] = test: Antibacterial activity against Staphylococcus aureus assessed as induction of bacterial membrane depolarization at MIC measured up to 21 mins by fluorescence assay; type: functional, organism-based
Staphylococcus aureus [21] = test: Antibacterial activity against Staphylococcus aureus assessed as induction of bacterial membrane depolarization at MIC after 3 mins by fluorescence assay; type: functional

Row | Compound | MIC (Inquilinus limosus) [mg/L] | MIC (Staphylococcus aureus [1]) [mg/L] | MIC (Staphylococcus aureus [2]) [mg/L] | MIC (Staphylococcus aureus [3]) [mg/L] | MIC (Burkholderia cepacia) [mg/L] | MIC (Escherichia coli [4]) [mg/L] | MIC (Pseudomonas aeruginosa [5]) [mg/L] | MIC (Pseudomonas aeruginosa [6]) [mg/L] | other results
1 | C[C@@H](NCCCCCCCCCN)[C@H]1CC[C@H]2[C@@H]3CCC4=C[C@@H](NCCCCCCCCCN)CC[C@]4(C)[C@H]3CC[C@]12C | 20 (≈ 33.4 µM) | 5 (≈ 8.35 µM) | 5 (≈ 8.35 µM) | 5 (≈ 8.35 µM) | > 40 | 20 (≈ 33.4 µM) | 40 (≈ 66.8 µM) | 40 (≈ 66.8 µM) | 
2 | C[C@@H](NCCCCCCCCCCN)[C@H]1CC[C@H]2[C@@H]3CCC4=C[C@@H](NCCCCCCCCCCN)CC[C@]4(C)[C@H]3CC[C@]12C | 20 (≈ 31.9 µM) | 10 (≈ 15.9 µM) | 5 (≈ 7.97 µM) | 5 (≈ 7.97 µM) | > 40 | 20 (≈ 31.9 µM) | 40 (≈ 63.8 µM) | 40 (≈ 63.8 µM) | 
3 | COLISTIMETHATE SODIUM | > 100 |  |  |  | > 40 | 2.5 | 5 | 5 | Activity (Escherichia coli [7]): 4%; MIC (Staphylococcus aureus [8]): > 128 mg/L; MIC (Staphylococcus aureus [9]): > 128 mg/L; MIC (Escherichia coli [10]): 0.5 mg/L; Ratio (Escherichia coli [11]): 4; Activity (Staphylococcus aureus [12]): inactive; MIC (Escherichia coli [13]): 16 mg/L
4 | C[C@@H](N)[C@H]1CC[C@H]2[C@@H]3CCC4=C[C@@H](N)CC[C@]4(C)[C@H]3CC[C@]12C | > 40 | 40 (≈ 126 µM) | > 40 | 40 (≈ 126 µM) | > 40 | > 40 | > 40 | > 40 | 
5 | CN[C@@H]1C=C2CC[C@H]3[C@@H]4CC[C@H]([C@@H](C)NC)[C@@]4(C)CC[C@@H]3[C@@]2(C)CC1 | > 40 | 40 (≈ 116 µM) | 20 (≈ 58 µM) | 20 (≈ 58 µM) | > 40 | > 40 | > 40 | > 40 | 
6 | C[C@@H](NCCCCCCCN)[C@H]1CC[C@H]2[C@@H]3CCC4=C[C@@H](NCCCCCCCN)CC[C@]4(C)[C@H]3CC[C@]12C | 20 (≈ 36.8 µM) | 2.5 (≈ 4.6 µM) | 2.5 (≈ 4.6 µM) | 5 (≈ 9.21 µM) | > 40 | 5 (≈ 9.21 µM) | 10 (≈ 18.4 µM) | 10 (≈ 18.4 µM) | 
7 | NC[C@H]1O[C@H](O[C@H]2[C@H](O)[C@@H](O[C@H]3O[C@H](CO)[C@@H](O)[C@H](N)[C@H]3O)[C@H](N)C[C@@H]2N)[C@H](N)C[C@@H]1O [TOBRAMYCIN] | > 40 | 1.25 (≈ 2.67 µM) | 1.25 (≈ 2.67 µM) |  | > 40 | 2.5 (≈ 5.35 µM) | 5 (≈ 10.7 µM) | 5 (≈ 10.7 µM) | MIC (Staphylococcus aureus [8]; ATCC 25923, 24 h): 2 mg/L; MIC (Staphylococcus aureus [9]; ATCC 25923, 24 h): 1 mg/L (≈ 2.14 µM); MIC (Escherichia coli [10]; ATCC 25922, 24 h): 2 mg/L (≈ 4.28 µM); FC (Staphylococcus aureus [14]): 5; MIC (Escherichia coli [13]; ATCC 25922, 24 h): 1 mg/L
8 | C[C@@H](NCCCCCCCCN)[C@H]1CC[C@H]2[C@@H]3CCC4=C[C@@H](NCCCCCCCCN)CC[C@]4(C)[C@H]3CC[C@]12C | 10 (≈ 17.5 µM) | 2.5 (≈ 4.38 µM) | 2.5 (≈ 4.38 µM) | 5 (≈ 8.76 µM) | > 40 | 5 (≈ 8.76 µM) | 2.5 (≈ 4.38 µM) | 2.5 (≈ 4.38 µM) | Activity (Escherichia coli [7]): <35%; MIC (Staphylococcus aureus [8]; ATCC 25923, 24 h): 5 mg/L; fold change (FC) (Escherichia coli [15]): 4; MIC (Staphylococcus aureus [9]; ATCC 25923, 24 h): 2.5 mg/L (≈ 4.38 µM); MIC (Escherichia coli [10]; ATCC 25922, 24 h): 2.5 mg/L (≈ 4.38 µM); fold change (FC) (Staphylococcus aureus [16]): 4; FC (Staphylococcus aureus [17]): 5; Ratio (Escherichia coli [11]): 4; MIC (Escherichia coli [13]; ATCC 25922, 24 h): 10 mg/L; Activity (Pseudomonas aeruginosa [18]): Active
9 | C[C@@H](NCCCCN)[C@H]1CC[C@H]2[C@@H]3CCC4=C[C@@H](NCCCCN)CC[C@]4(C)[C@H]3CC[C@]12C | 40 (≈ 87.2 µM) | 5 (≈ 10.9 µM) | 10 (≈ 21.8 µM) | 6 (≈ 13.1 µM) | > 40 | 10 (≈ 21.8 µM) | 20 (≈ 43.6 µM) | 20 (≈ 43.6 µM) | 
10 | C[C@@H](NCCN)[C@H]1CC[C@H]2[C@@H]3CCC4=C[C@@H](NCCN)CC[C@]4(C)[C@H]3CC[C@]12C | > 40 | 20 (≈ 49.7 µM) | 20 (≈ 49.7 µM) | 10 (≈ 24.8 µM) | > 40 | 20 (≈ 49.7 µM) | 20 (≈ 49.7 µM) | 20 (≈ 49.7 µM) | 
11 | C[C@@H](NCCCCCCCCCCCCN)[C@H]1CC[C@H]2[C@@H]3CCC4=C[C@@H](NCCCCCCCCCCCCN)CC[C@]4(C)[C@H]3CC[C@]12C | 20 (≈ 29.3 µM) | 10 (≈ 14.6 µM) | 5 (≈ 7.32 µM) | 10 (≈ 14.6 µM) | > 40 | 20 (≈ 29.3 µM) | 40 (≈ 58.5 µM) | 40 (≈ 58.5 µM) | 
12 | C[C@@H](NCCCCCN)[C@H]1CC[C@H]2[C@@H]3CCC4=C[C@@H](NCCCCCN)CC[C@]4(C)[C@H]3CC[C@]12C | 40 (≈ 82.2 µM) | 5 (≈ 10.3 µM) | 5 (≈ 10.3 µM) | 10 (≈ 20.5 µM) | > 40 | 10 (≈ 20.5 µM) | 20 (≈ 41.1 µM) | 10 (≈ 20.5 µM) | 
13 | C[C@@H](NCCCN)[C@H]1CC[C@H]2[C@@H]3CCC4=C[C@@H](NCCCN)CC[C@]4(C)[C@H]3CC[C@]12C | 20 (≈ 46.4 µM) | 10 (≈ 23.2 µM) | 10 (≈ 23.2 µM) | 5 (≈ 11.6 µM) | > 40 | 10 (≈ 23.2 µM) | 20 (≈ 46.4 µM) | 10 (≈ 23.2 µM) | 
14 | CC(C)[C@@H](CC[C@@H](C)[C@H]1CC[C@H]2[C@@H]3[C@H](O)C[C@H]4C[C@@H](NCCCNCCCCN)CC[C@]4(C)[C@H]3CC[C@]12C)OS(=O)(=O)O [SQUALAMINE] | 5 (≈ 7.96 µM) | 1.25 (≈ 1.99 µM) | 0.3 (≈ 0.478 µM) | 1.25 (≈ 1.99 µM) | > 40 | 5 (≈ 7.96 µM) | 5 (≈ 7.96 µM) | 2.5 (≈ 3.98 µM) | Activity (Escherichia coli [7]): <35%; MIC (Staphylococcus aureus [8]; ATCC 25923, 24 h): 1.25 mg/L; Activity (Escherichia coli [19]): inactive; MIC (Staphylococcus aureus [9]; ATCC 25923, 24 h): 1.25 mg/L (≈ 1.99 µM); MIC (Escherichia coli [10]; ATCC 25922, 24 h): 2.5 mg/L (≈ 3.98 µM); Activity (Staphylococcus aureus [20]): Active; Activity (Staphylococcus aureus [21]): 80%; Ratio (Escherichia coli [11]): 4; Activity (Staphylococcus aureus [12]): 100%; MIC (Escherichia coli [13]; ATCC 25922, 24 h): 32 mg/L
15 | C[C@@H](NCCCCCCN)[C@H]1CC[C@H]2[C@@H]3CCC4=C[C@@H](NCCCCCCN)CC[C@]4(C)[C@H]3CC[C@]12C | 20 (≈ 38.8 µM) | 2.5 (≈ 4.86 µM) | 5 (≈ 9.71 µM) | 5 (≈ 9.71 µM) | > 40 | 5 (≈ 9.71 µM) | 20 (≈ 38.8 µM) | 10 (≈ 19.4 µM) | 
